Calls of active or inactive are those of the source.
Tests used:
[1] = target: Heat shock protein HSP 90-alpha (Homo sapiens, UniProt P07900); test: Luminescence-based dose response biochemical high throughput screening assay for inhibitors of the Heat Shock Protein 90 (HSP90). [Related pubchem assays: 1831 (Summary AID.), 1846 (Confirmation screen.), 1789 (Primary screen.)]
Beta-galactosidase = Beta-galactosidase (Escherichia coli, UniProt Q8VNN2); test: beta-galactosidase enzyme inhibitors and activators, dose response, artefact control for CCR6 antagonist project, biochemical, E. coli enzyme, set 3 (AID 504712); type: functional
Keap1/Nrf2 = Keap1/Nrf2 (Homo sapiens, UniProt Q14145); test: Keap1-Nrf2 protein-protein interaction inhibitors, dose response, biochemical, fluorescence polarization, cherry-picked samples (AID 588683)
[2] = cytotoxicity toward NIH3T3 fibroblasts, dose response, counter-screen, cell-based, ATP luminescence, mouse fibroblasts (AID 2010); type: functional;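 note: cells exposed to compound for about 90 hours before reading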
[3] = target: Induced myeloid leukemia cell differentiation protein Mcl-1 (Homo sapiens, UniProt Q07820); type: functional
Beta-arrestin-1 = Beta-arrestin-1 (Homo sapiens, UniProt P49407); test: inhibitors of arrestin peptide binding to AP2, dose response, biochemical, cherry pick 1, beta2-adaptin appendage, flow cytometry (AID 588783); type: functional
Genome polyprotein = Genome polyprotein (dengue virus type 2, UniProt P29990); test: Dengue-2 NS5 methyltransferase inhibitors, primary screen, biochemical, confirmation dose response (AID 588689); type: functional
Hexokinase-1 = target: T1, Hexokinase-1 (Homo sapiens, UniProt P19367); test: SAR analysis of small molecule inhibitors of hexokinase domain containing I (HKDC1) in the hexokinase 1 selectivity assay. [Related pubchem assays (depositor defined):AID493160, AID493190]; type: functional
T1 sequence (P19367 whole entry): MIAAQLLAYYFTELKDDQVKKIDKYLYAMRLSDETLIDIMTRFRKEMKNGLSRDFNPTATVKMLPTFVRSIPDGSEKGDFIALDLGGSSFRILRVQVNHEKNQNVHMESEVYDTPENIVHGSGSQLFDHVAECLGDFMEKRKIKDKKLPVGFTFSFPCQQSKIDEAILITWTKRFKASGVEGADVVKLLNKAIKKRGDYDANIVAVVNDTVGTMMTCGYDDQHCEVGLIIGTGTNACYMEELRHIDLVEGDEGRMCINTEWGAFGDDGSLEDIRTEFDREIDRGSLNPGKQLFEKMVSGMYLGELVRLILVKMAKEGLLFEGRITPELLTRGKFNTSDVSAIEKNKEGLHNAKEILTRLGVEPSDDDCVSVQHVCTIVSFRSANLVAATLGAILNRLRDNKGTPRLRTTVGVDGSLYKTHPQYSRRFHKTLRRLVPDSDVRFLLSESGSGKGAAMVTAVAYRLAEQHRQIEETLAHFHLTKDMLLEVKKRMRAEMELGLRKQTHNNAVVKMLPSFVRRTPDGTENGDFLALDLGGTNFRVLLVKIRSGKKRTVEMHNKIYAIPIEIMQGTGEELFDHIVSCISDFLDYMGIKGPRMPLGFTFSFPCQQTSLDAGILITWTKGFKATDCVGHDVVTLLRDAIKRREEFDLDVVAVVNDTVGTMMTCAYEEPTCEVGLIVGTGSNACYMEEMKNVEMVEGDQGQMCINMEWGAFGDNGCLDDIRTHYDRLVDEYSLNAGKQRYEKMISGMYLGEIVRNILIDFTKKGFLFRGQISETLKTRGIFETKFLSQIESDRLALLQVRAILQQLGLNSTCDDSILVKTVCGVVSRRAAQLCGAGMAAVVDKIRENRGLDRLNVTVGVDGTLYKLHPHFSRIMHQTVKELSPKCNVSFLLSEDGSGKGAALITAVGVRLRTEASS

Hexokinase HKDC1 = target: T2, Hexokinase HKDC1 (Homo sapiens, UniProt Q2TB90); test: SAR analysis of small molecule inhibitors of hexokinase domain containing I (HKDC1). [Related pubchem assays (depositor defined):AID493160, AID493190]; type: functional
T2 sequence (Q2TB90 whole entry): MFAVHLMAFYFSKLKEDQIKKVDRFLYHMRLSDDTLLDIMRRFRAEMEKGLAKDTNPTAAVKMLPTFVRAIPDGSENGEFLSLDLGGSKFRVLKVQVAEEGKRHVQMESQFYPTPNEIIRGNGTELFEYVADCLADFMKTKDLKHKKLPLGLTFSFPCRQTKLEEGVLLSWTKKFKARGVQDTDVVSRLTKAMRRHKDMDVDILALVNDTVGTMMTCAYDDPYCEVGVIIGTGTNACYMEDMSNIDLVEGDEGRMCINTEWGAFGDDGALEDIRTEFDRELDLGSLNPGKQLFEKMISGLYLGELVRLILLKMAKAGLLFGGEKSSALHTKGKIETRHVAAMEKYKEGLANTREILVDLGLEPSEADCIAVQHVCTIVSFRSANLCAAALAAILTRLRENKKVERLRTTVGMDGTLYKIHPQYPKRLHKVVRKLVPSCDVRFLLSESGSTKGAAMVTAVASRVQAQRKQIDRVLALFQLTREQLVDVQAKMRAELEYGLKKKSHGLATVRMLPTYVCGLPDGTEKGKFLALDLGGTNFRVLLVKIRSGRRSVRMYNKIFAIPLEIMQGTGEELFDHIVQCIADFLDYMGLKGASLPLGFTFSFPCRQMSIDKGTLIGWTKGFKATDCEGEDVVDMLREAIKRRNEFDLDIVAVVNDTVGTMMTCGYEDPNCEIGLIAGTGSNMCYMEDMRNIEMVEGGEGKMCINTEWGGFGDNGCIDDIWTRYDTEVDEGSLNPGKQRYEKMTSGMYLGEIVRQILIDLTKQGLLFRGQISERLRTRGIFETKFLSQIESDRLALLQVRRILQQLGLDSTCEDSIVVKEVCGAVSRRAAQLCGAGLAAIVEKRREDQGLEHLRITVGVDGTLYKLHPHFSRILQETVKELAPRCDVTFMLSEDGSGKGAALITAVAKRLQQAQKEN

Streptokinase A = target: T3, Streptokinase A (Streptococcus pyogenes serotype M1, UniProt P10520); test: S. pyogenes streptokinase expression inhibitors, potency, dose response, plasminogen activation absorbance, OD405 (AID 1914); type: functional, Streptococcus pyogenes M1 GAS;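 note: secreted streptokinase activity via plasminogen activation per viability signal from cell pellet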
T3 sequence (P10520 whole entry): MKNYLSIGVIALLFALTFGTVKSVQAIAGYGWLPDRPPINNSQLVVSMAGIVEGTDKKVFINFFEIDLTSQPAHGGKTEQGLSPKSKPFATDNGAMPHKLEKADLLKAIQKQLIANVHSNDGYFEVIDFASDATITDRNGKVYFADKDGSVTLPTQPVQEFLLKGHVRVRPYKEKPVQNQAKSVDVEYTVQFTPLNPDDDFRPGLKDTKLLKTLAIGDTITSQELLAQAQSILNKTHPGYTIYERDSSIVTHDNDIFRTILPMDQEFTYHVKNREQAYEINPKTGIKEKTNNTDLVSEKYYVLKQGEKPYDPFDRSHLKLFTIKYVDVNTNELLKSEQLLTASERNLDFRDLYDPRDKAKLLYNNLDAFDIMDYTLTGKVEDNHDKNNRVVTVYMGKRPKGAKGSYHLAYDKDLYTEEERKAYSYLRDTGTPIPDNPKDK

Sequence of Beta-galactosidase (Q8VNN2 whole entry): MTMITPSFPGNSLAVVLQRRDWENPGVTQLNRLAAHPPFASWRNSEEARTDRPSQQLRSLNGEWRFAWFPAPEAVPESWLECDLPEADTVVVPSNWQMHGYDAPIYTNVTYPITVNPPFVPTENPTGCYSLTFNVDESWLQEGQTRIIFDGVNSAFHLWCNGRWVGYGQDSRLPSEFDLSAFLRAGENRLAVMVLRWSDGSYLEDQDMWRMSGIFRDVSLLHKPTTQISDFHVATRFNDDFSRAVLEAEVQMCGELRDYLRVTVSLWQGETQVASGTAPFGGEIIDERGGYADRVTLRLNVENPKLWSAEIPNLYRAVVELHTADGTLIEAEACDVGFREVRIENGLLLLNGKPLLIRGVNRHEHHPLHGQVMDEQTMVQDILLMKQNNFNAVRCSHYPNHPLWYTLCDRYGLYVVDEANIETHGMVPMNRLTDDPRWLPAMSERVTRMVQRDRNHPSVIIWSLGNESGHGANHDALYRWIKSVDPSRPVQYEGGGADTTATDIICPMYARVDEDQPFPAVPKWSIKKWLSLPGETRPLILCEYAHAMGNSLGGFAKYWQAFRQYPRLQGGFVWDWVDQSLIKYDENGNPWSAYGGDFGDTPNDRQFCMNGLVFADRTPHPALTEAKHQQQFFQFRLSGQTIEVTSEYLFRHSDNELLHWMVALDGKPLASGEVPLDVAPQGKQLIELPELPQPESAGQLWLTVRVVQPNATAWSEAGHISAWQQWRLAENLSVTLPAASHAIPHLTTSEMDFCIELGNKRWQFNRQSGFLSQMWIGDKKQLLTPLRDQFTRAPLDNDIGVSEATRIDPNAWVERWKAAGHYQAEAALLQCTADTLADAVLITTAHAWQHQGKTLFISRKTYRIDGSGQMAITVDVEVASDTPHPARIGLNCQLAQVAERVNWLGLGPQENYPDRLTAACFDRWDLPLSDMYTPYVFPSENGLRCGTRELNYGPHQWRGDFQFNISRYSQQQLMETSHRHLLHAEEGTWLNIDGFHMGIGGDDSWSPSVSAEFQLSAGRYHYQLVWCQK
Sequence of Beta-arrestin-1 (P49407 whole entry): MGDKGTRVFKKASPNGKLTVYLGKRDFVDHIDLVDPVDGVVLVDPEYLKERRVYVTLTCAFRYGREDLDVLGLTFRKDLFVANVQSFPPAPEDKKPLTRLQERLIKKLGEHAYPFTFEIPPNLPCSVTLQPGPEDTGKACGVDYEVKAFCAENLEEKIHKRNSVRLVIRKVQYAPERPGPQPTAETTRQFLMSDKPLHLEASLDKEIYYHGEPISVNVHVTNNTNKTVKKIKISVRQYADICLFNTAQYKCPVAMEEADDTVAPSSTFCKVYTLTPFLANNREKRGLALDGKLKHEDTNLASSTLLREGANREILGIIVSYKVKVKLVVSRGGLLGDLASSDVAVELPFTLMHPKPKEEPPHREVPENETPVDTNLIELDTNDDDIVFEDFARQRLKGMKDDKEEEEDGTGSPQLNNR
Sequence of Genome polyprotein (P29990 2492-3391 limits assumed): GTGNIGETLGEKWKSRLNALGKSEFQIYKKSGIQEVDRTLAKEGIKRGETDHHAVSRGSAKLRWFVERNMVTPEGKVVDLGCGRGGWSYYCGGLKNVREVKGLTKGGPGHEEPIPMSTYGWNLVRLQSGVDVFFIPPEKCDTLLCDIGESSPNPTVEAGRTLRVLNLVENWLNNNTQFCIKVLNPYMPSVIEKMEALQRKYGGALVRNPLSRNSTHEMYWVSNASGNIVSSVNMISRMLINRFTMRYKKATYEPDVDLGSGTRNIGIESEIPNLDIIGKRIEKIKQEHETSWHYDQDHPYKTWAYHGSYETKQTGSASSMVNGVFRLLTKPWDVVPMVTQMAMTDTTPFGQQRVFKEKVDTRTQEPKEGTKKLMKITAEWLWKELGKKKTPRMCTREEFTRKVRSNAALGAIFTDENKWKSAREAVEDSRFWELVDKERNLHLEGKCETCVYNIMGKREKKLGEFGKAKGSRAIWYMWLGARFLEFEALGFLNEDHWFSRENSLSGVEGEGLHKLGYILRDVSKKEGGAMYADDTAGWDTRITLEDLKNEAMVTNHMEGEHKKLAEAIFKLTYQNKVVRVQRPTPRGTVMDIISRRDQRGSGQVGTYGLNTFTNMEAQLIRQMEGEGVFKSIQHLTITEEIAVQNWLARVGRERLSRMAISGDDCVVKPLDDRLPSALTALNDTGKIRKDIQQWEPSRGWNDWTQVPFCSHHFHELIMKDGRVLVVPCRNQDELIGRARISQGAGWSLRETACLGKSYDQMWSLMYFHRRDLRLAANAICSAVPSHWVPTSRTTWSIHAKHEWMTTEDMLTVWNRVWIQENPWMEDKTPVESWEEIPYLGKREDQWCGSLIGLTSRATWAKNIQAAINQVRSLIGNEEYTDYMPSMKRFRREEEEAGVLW
Sequence of Keap1/Nrf2 (Q16236 whole entry): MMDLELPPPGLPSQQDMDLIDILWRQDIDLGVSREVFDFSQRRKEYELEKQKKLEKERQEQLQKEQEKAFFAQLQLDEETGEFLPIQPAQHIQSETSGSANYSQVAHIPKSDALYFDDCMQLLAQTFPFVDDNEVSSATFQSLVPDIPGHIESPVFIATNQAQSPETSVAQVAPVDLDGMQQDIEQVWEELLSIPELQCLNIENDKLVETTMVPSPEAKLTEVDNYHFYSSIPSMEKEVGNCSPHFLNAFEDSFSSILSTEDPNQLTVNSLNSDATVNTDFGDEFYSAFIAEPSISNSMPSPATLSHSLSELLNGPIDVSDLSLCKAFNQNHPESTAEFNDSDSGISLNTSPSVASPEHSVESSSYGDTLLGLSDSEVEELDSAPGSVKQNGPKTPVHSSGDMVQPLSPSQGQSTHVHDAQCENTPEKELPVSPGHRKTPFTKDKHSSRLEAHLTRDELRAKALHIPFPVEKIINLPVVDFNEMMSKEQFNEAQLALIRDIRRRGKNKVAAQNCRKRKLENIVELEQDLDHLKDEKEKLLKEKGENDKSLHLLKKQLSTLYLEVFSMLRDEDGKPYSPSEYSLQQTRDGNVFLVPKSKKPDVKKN
Sequence of Keap1/Nrf2 (Q14145 whole entry): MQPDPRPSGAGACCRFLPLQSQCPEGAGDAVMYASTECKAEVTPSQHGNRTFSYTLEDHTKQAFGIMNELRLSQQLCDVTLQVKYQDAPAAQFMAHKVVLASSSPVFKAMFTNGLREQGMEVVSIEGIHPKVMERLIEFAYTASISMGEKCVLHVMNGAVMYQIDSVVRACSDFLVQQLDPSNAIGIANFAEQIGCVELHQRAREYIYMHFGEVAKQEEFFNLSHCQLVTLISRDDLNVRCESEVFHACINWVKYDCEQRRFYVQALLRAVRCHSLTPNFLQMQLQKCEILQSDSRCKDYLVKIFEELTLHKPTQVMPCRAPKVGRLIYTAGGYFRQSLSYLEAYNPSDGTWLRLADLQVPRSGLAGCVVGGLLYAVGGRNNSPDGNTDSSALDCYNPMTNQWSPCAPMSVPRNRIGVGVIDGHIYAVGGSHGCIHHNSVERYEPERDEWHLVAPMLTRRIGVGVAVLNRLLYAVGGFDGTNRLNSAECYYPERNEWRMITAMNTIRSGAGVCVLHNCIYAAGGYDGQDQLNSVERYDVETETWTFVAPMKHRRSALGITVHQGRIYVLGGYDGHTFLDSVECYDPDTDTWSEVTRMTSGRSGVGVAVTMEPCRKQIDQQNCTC
Sequence of Induced myeloid leukemia cell differentiation protein Mcl-1 (Q07820 whole entry): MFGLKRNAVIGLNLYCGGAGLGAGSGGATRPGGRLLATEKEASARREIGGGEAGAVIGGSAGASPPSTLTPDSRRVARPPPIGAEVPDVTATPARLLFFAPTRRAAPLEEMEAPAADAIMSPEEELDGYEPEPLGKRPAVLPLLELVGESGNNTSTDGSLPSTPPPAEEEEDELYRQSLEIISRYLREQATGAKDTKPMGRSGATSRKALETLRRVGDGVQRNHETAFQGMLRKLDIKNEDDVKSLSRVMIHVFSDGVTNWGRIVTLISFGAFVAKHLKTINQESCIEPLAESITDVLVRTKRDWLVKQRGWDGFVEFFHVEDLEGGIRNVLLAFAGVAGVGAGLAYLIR

Structure (SMILES): COC(=O)c1ccccc1NC1=C/C(=N\S(=O)(=O)c2ccc(C(=O)O)cc2)c2ccccc2C1=O
- IC50 [1]: 1.26 µM (active)
- IC50 (Beta-galactosidase): > 66.6 µM (inactive)
- AC50 (Keap1/Nrf2): > 52 µM (inactive)

Structure (SMILES): NC(=O)C1CCN(C2=C(Cl)C(=O)c3ccccc3C2=O)CC1
- EC50 [2]: 3.29 µM (active)
- IC50 [3]: > 54 µM (not active)
- IC50 (Beta-arrestin-1): 22.2 µM (inactive)
- IC50 (Genome polyprotein): 26 µM (active)

Structure (SMILES): O=c1c2ccccc2nc(/C=C/c2cccnc2)n1Cc1ccccc1
- IC50 (Hexokinase-1): > 80 µM (inactive)
- IC50 (Hexokinase HKDC1): > 80 µM (inactive)

Structure (SMILES): O=C(O)c1ccc(N/N=C/c2ccc(OC(=O)c3ccccc3Cl)cc2)cc1
- EC50 (Streptokinase A): > 150 µM (not active)
